The values below come from EPA's ToxRefDB 2.

SMILES strings stand for the structures. A value given as a limit tells only on which side of the number the result lay.

Data set [1] concerns rat. The settings on record: Multigenerational reproductive toxicity study, wistar, Oral, Feed, dose end: 2 generation.
Another data set relates to mouse. The settings on record: Carcinogenicity, cd1, Oral, Feed, dose end: 78 week.
In data set [2] the test system is rat. The following applies: Multigenerational reproductive toxicity study, sprague dawley, Oral, Feed, dose end: 2 generation.
For data set [3], the system named is rat. The following applies: Multigenerational reproductive toxicity study, sprague dawley, Oral, Feed, dose end: 2 generation. The source holds these as a separate data set.
Data set [4] relates to rat. The following applies: Prenatal developmental toxicity study, sprague dawley, Oral, Gavage/Intubation, dose end: 15 GD.
The mark [5] stands for this setting: group: offspring, developmental / developmental landmark / preputial separation / preputial separation + systemic / in life observation / body weight / ….
The mark [6] stands for this setting: group: parental, systemic / pathology gross / eye / opacity + systemic / pathology microscopic / eye / inflammation + systemic / pathology microscopic / eye….
Setting [7] is: group: reproductive, reproductive / reproductive performance / estrous cycle / abnormal + reproductive / reproductive performance / estrous cycle / corpora lutea.
[8] abbreviates: group: cholinesterase, cholinesterase / cholinesterase / cholinesterase / brain cholinesterase (che) + cholinesterase / cholinesterase / cholinesterase / ….
[9] abbreviates: group: systemic, systemic / in life observation / body weight / body weight + systemic / in life observation / body weight / body weight gain + systemic / in….
[10] abbreviates: group: offspring, systemic / organ weight / kidney / absolute + systemic / organ weight / liver / absolute + systemic / pathology gross / kidney / enlarged + ….
Where [11] appears, read: group: parental, systemic / organ weight / liver / absolute + systemic / organ weight / kidney / absolute.
The mark [12] stands for this setting: group: reproductive, reproductive / offspring survival early / birth index / live birth index.
Where [13] appears, read: group: offspring, developmental / offspring survival late / viability index / viability index + developmental / developmental landmark / anogenital distance (….
The mark [14] stands for this setting: group: offspring, systemic / organ weight / kidney / absolute + systemic / organ weight / liver / absolute + systemic / pathology microscopic / liver / ….
[15] abbreviates: group: parental, systemic / in life observation / body weight / body weight + systemic / organ weight / kidney / absolute + systemic / organ weight / liver….
[16] abbreviates: group: parental, systemic / organ weight / liver / absolute + systemic / pathology microscopic / liver / hypertrophy + systemic / organ weight / kidney / ….
The mark [17] stands for this setting: group: developmental, developmental / developmental malformation / bone / incomplete ossification + developmental / developmental malformation / bone / ….
Where [18] appears, read: group: maternal, systemic / in life observation / body weight / body weight gain + systemic / in life observation / food consumption / food consumption.

A word on the LOAEL: it is the lowest tested level that showed an adverse finding. By NOAEL is commonly meant the highest dose or exposure tested at which no adverse effect was seen. With `CS(=O)(=O)c1ccc(C(=O)C2C(=O)CCCC2=O)c(Cl)c1COCC(F)(F)F` [Tembotrione], in the data set on rat [1] (setting [5]), the LEL came to 1.3 mg/kg/day, the lowest observed adverse effect level (LOAEL) came out at 1.3 mg/kg/day, the NEL was less than 1.3 mg/kg/day and the no-observed-adverse-effect level (NOAEL) is less than 1.3 mg/kg/day. For the same compound, in the data set with rat [1] (setting [6]), the LEL stood at 1.3 mg/kg/day, the lowest-observed-adverse-effect level (LOAEL) was found to be 1.3 mg/kg/day, the NEL was less than 1.3 mg/kg/day and the no-observed-adverse-effect level (NOAEL) was less than 1.3 mg/kg/day. In addition, in the data set on rat [1] (setting [7]), the LEL is 123 mg/kg/day, the LOAEL was 123 mg/kg/day, the NEL was found to be 16.2 mg/kg/day and the NOAEL was 16.2 mg/kg/day.

For `CCN(CC)c1nc(C)cc(OP(=S)(OC)OC)n1` [Pirimiphos-methyl], in the data set with mouse (setting [8]), the LEL came out at 8.3 mg/kg/day, the lowest-observed-adverse-effect level (LOAEL) worked out at 8.3 mg/kg/day, the NEL is less than 8.3 mg/kg/day and the NOAEL was less than 8.3 mg/kg/day. Further, in the data set with mouse (setting [9]), the LEL came out at 33 mg/kg/day, the LOAEL was 33 mg/kg/day, the NEL was determined as 8.3 mg/kg/day and the no observed adverse effect level (NOAEL) was determined as 8.3 mg/kg/day.

For `CC(C)CCCCCCCOC(=O)c1ccccc1C(=O)OCCCCCCCC(C)C` [Diisodecyl phthalate], the LEL was 100 mg/kg/day with rat [2] (setting [10]); 200 mg/kg/day with rat [2] (setting [11]); 100 mg/kg/day in the data set on rat [2] (setting [12]); 100 mg/kg/day in the data set with rat [3] (setting [14]); 100 mg/kg/day with rat [3] (setting [16]); 100 mg/kg/day with rat [3] (setting [12]). In addition, the LEL in the data set on rat [4] (setting [17]) and with rat [4] (setting [18]) was 1000 mg/kg/day in each case. Further, the LOAEL was greater than 200 mg/kg/day with rat [2] (setting [10]); greater than 200 mg/kg/day with rat [2] (setting [11]); greater than 200 mg/kg/day in the data set with rat [2] (setting [12]); greater than 400 mg/kg/day in the data set on rat [3] (setting [13]); greater than 400 mg/kg/day with rat [3] (setting [15]); greater than 400 mg/kg/day in the data set on rat [3] (setting [12]). Also, the LOAEL in the data set on rat [4] (setting [17]) and in the data set with rat [4] (setting [18]) was greater than 1000 mg/kg/day throughout. Also, the NEL in the data set with rat [2] (setting [10]) is 30 mg/kg/day; in the data set with rat [2] (group: parental, systemic / organ weight / liver / absolute), 100 mg/kg/day; in the data set on rat [2] (setting [12]) it was 30 mg/kg/day; with rat [3] (setting [14]) it was less than 100 mg/kg/day; in the data set with rat [3] (setting [16]), less than 100 mg/kg/day; in the data set with rat [3] (setting [12]), less than 100 mg/kg/day. The NEL in the data set with rat [4] (setting [17]) and with rat [4] (setting [18]) was 500 mg/kg/day each time. Further, the NOAEL with rat [2] (setting [10]) was no less than 200 mg/kg/day; in the data set with rat [2] (setting [11]), no less than 200 mg/kg/day; in the data set on rat [2] (setting [12]) it was no less than 200 mg/kg/day; in the data set with rat [3] (setting [13]) it was no less than 400 mg/kg/day; in the data set with rat [3] (setting [15]) it was no less than 400 mg/kg/day; in the data set on rat [3] (setting [12]), no less than 400 mg/kg/day. For the same compound, the NOAEL in the data set on rat [4] (setting [17]) and in the data set with rat [4] (setting [18]) was no less than 1000 mg/kg/day each time.
